Converted amounts (≈) assume the structure as drawn. Read-outs that look alike come from different tables or passages of the source.
Key:
Format in all cases: cell-based
Candida krusei = assay: Microtiter dilution MIC test in RPMI 1640 medium, Candida krusei strains; conditions: Pichia kudriavzevii, 48 h, read-out: Minimum inhibitory concentration (MIC)
Experimental: (§1) Fluconazole-resistant strains of Candida albicans are isolated from patients who have been treated, for example, with fluconazole for more than one year. For this purpose, samples are taken from the patients' mouths and applied, undiluted or diluted 1:100, to an RPMI 1640 agar (Gibco/BRL, Life Technologies GmbH, D-76339 Eggenstein) which contains about 1.0 μg/ml fluconazole. Resistant Candida albicans strains are isolated, further purified on agar and stored isolated in peptone/dextrose slant agar tubes.
(§2) The activity of Compound 1 and fluconazole is determined by the microtiter dilution technique in RPMI 1640 medium. The growth medium RPMI 1640 buffered with 0.165 M morpholinopropanesulfonic acid pH 7.0 is introduced into 96-well microtiter plates. Serial dilutions by a factor of 2 are prepared for Compound 1 and fluconazole to result in final concentrations of 256 to 0.002 μg/ml of Compound 1 and fluconazole. The microtiter plates prepared in this way are incubated with the Candida strains to be tested. For comparison purposes, the two Candida albicans strains ATCC 90028 and 90029 which are not resistant to fluconazole are included in the test. The initial cell count is 1-5 ×10^3 colony-forming units per ml of growth medium. The microtiter plates are incubated at 35° C. for 48 hours. The minimum inhibitory concentration is determined by photometry at 510 nm.

Candida albicans = assay: Microtiter dilution MIC test in RPMI 1640 medium, Candida albicans strains; conditions: read-out: Minimum inhibitory concentration (MIC)
Experimental: as §1, §2

Candida glabrata = assay: Microtiter dilution MIC test in RPMI 1640 medium, Candida glabrata strains; conditions: Nakaseomyces glabratus, 48 h, read-out: Minimum inhibitory concentration (MIC)
Experimental: as §2

Candida guillermondii = assay: Microtiter dilution MIC test in RPMI 1640 medium, Candida guillermondii strain; conditions: Candida guillermondii B47; 35° C., 48 hours; read-out: Minimum inhibitory concentration (MIC)
Experimental: as §1, §2

Entamoeba histolytica = assay: In vitro activity on protozoa, Entamoeba histolytica
Text: (§3) In vitro activity of the Compound 1 on protozoa

Trichomonas vaginalis = assay: In vitro activity on protozoa, Trichomonas vaginalis
Text: as §3

[1] = 48 h, Candida albicans 94/3, 35° C.
[2] = 48 h, Candida albicans 94/14, 35° C.
[3] = 48 h, Candida albicans 94/57, 35° C.
[4] = 48 h, Candida albicans 94/62, 35° C.
[5] = 48 h, Candida albicans 94/90, 35° C.
[6] = 48 h, Candida albicans 94/118, 35° C.
[7] = 48 h, Candida albicans 94/134, 35° C.
[8] = 48 h, Candida albicans 94/138, 35° C.
[9] = 48 h, Candida albicans 94/222, 35° C.
[10] = 48 h, Candida albicans 94/231, 35° C.
[11] = 48 h, Candida albicans B6, 35° C.
[12] = 48 h, Candida albicans B70, 35° C.
[13] = 48 h, Candida albicans B75, 35° C.
[14] = ATCC90028, 48 h, Candida albicans ATCC 90028 (not resistant to fluconazole), 35° C.
[15] = ATCC90029, 48 h, Candida albicans ATCC 90029 (not resistant to fluconazole), 35° C.

MIC (Candida krusei; Candida krusei B1, 35° C.) [µg/mL] | MIC (Candida krusei; Candida krusei B4, 35° C.) [µg/mL] | MIC (Candida albicans; [1]) [µg/mL] | MIC (Candida albicans; [2]) [µg/mL] | MIC (Candida albicans; [3]) [µg/mL] | MIC (Candida albicans; [4]) [µg/mL] | MIC (Candida albicans; [5]) [µg/mL] | MIC (Candida albicans; [6]) [µg/mL] | MIC (Candida albicans; [7]) [µg/mL] | MIC (Candida albicans; [8]) [µg/mL] | MIC (Candida albicans; [9]) [µg/mL] | MIC (Candida albicans; [10]) [µg/mL] | MIC (Candida albicans; [11]) [µg/mL] | MIC (Candida albicans; [12]) [µg/mL] | MIC (Candida albicans; [13]) [µg/mL] | MIC (Candida albicans; [14]) [µg/mL] | MIC (Candida albicans; [15]) [µg/mL] | MIC (Candida glabrata; Candida glabrata B12, 35° C.) [µg/mL] | MIC (Candida glabrata; Candida glabrata B14, 35° C.) [µg/mL] | MIC (Candida glabrata; Candida glabrata B18, 35° C.) [µg/mL] | Structure (SMILES) | also measured
32 (≈ 104 µM) | 16 (≈ 52.2 µM) | 32 (≈ 104 µM) | 32 (≈ 104 µM) | > 256 | > 256 | > 256 | > 256 | > 256 | > 256 | > 256 | > 256 | 1 (≈ 3.27 µM) | > 256 | 2 (≈ 6.53 µM) | 0.5 (≈ 1.63 µM) | 1 (≈ 3.27 µM) | 4 (≈ 13.1 µM) | 2 (≈ 6.53 µM) | 8 (≈ 26.1 µM) | OC(Cn1cncn1)(Cn1cncn1)c1ccc(F)cc1F [Fluconazole, fluconazole, reference compound] | MIC (Candida glabrata; Candida glabrata B21, 35° C.): 8 µg/mL (≈ 26.1 µM); MIC (Candida glabrata; Candida glabrata B35, 35° C.): 8 µg/mL (≈ 26.1 µM); MIC (Candida glabrata; Candida glabrata B37, 35° C.): 16 µg/mL (≈ 52.2 µM); MIC (Candida glabrata; Candida glabrata B38, 35° C.): 16 µg/mL (≈ 52.2 µM); MIC (Candida glabrata; Candida glabrata B39, 35° C.): 8 µg/mL (≈ 26.1 µM); MIC (Candida glabrata; Candida glabrata B40, 35° C.): 16 µg/mL (≈ 52.2 µM); MIC (Candida glabrata; Candida glabrata B50, 35° C.): 16 µg/mL (≈ 52.2 µM); MIC (Candida glabrata; Candida glabrata B51, 35° C.): 32 µg/mL (≈ 104 µM); MIC (Candida guillermondii): 4 µg/mL (≈ 13.1 µM)
0.5 (≈ 1.4 µM) | 1 (≈ 2.79 µM) | 2 (≈ 5.59 µM) | 2 (≈ 5.59 µM) | 1 (≈ 2.79 µM) | 1 (≈ 2.79 µM) | 1 (≈ 2.79 µM) | 2 (≈ 5.59 µM) | 1 (≈ 2.79 µM) | 1 (≈ 2.79 µM) | 1 (≈ 2.79 µM) | 1 (≈ 2.79 µM) | 1 (≈ 2.79 µM) | 1 (≈ 2.79 µM) | 1 (≈ 2.79 µM) | 1 (≈ 2.79 µM) | 0.5 (≈ 1.4 µM) | 0.5 (≈ 1.4 µM) | 0.5 (≈ 1.4 µM) | 0.5 (≈ 1.4 µM) | Cc1cc(COc2ccc(Oc3ccc(Cl)cc3)cc2)n(O)c(=O)c1 [Compound 1, 6-[4-(4-chlorophenoxy)phenoxymethyl]-1-hydroxy4-methyl-2(1H)-pyridone] | MIC (Entamoeba histolytica; 3 of n = 4 strains investigated): 62.5 µg/mL (≈ 175 µM); MIC (Entamoeba histolytica; remaining strain of n = 4 strains investigated (count not given)): 31.2 µg/mL (≈ 87.2 µM); MIC (Candida glabrata; Candida glabrata B21, 35° C.): 1 µg/mL (≈ 2.79 µM); MIC (Candida glabrata; Candida glabrata B35, 35° C.): 1 µg/mL (≈ 2.79 µM); MIC (Candida glabrata; Candida glabrata B37, 35° C.): 1 µg/mL (≈ 2.79 µM); MIC (Candida glabrata; Candida glabrata B38, 35° C.): 1 µg/mL (≈ 2.79 µM); MIC (Candida glabrata; Candida glabrata B39, 35° C.): 0.5 µg/mL (≈ 1.4 µM); MIC (Candida glabrata; Candida glabrata B40, 35° C.): 1 µg/mL (≈ 2.79 µM); MIC (Candida glabrata; Candida glabrata B50, 35° C.): 0.5 µg/mL (≈ 1.4 µM); MIC (Candida glabrata; Candida glabrata B51, 35° C.): 0.5 µg/mL (≈ 1.4 µM); MIC (Trichomonas vaginalis; 2 of n = 5 strains investigated): 125 µg/mL (≈ 349 µM); MIC (Trichomonas vaginalis; 3 of n = 5 strains investigated): 31.2 µg/mL (≈ 87.2 µM); MIC (Candida guillermondii): 1 µg/mL (≈ 2.79 µM)

Reference: patent publication US6455551B1, “Use of 1-hydroxy-2-pyridones for treating mucosa diseases which are difficult to treat” (Aventis Pharma Deutschland GmbH, priority 1996, dated 2002)
